# Data published in PMC3335078, “Length and Amino Acid Sequence of Peptides Substituted for the 5-HT3A Receptor M3M4 Loop May Affect Channel Expression and Desensitization” (PLoS ONE, 2012).
# Tested on: 5-HT3A-QDA receptor
# Assay: Outside-out patch clamp of transfected HEK293 cells, effect of ondansetron on 5-HT activated channels
# Format: cell-based
# Details: 1 µM ondansetron with 5-HT, -60 mV, data not shown
# Protocol: HEK293 cells (CRL-1573, ATCC, Manassas, VA) seeded at low density on poly-lysine-coated, 12 mm, thin glass coverslips were transfected 24 h later using a modified calcium-phosphate precipitation technique with 500 ng DNA per well. After 12 h, cells were rinsed with fresh medium (DMEM supplemented with 10% FBS+100 Units ml^-1 penicillin+100 μg ml^-1 streptomycin+4 mM L-glutamine) and incubated at 28°C [34]. Recordings were performed 24-48 h later. For patch clamp experiments the coverslips were mounted on an inverted Zeiss IM microscope equipped with epifluorescent illumination. Cells expressing the GFP reporter were selected for patch clamp recording. Pipettes pulled from borosilicate glass capillaries ([…]-10, Harvard Apparatus Inc., Holliston, MA) with a tip resistance of 8-13 MΩ when filled with intracellular solution. The recordings were done using outside-out and cell-attached patch configurations. Data was acquired with an EPC9 amplifier using Pulse software, v8.65 (HEKA Instruments Inc., Bellmore, NY). Data were sampled at 20 kHz and filtered at 10 kHz. All point histograms and fits with a sum of two or three Gaussian functions were performed using the Levenberg-Marquardt algorithm implemented in Qub software. […] Effects of ondansetron were determined in the outside-out recording configuration at a holding potential of -60 mV.
smiles,measurement,value
"Cc1nccn1CC1CCc2c(c3ccccc3n2C)C1=O (stereo not shown) [ondansetron, Ondansetron]",Block of 5-HT activated single channels,no similar channels were observed
